Earlier results in paper PMC7347157 (Chemical communications (Cambridge, England), 2019).

Settings: unlabeled dienophile

Molecule	log P
OC1CC/C=C/CCC1 (stereo not drawn) [5-hydroxy-trans-cyclooctene]	1.11
trans-5-oxocene [compound 4]	0.51
